Results taken from patent publication US20040115666A1, “Method for identifying compounds modulating reverse cholesterol transport” (priority 2001, published 2004).

Experiments:
[1] = system: apo A-I expression in HepG2 cells; assay: apo A-I mRNA expression in HepG2 cells (Northern blot); assay type: cell-based, human
Description: HepG2 cells were grown in DMEM medium supplemented with 10% fetal calf serum, penicillin/streptomycin, sodium pyruvate and nonessential amino acids and incubated at 37° C in a humidified 5% CO2/95% air atmosphere. […] Total RNA was extracted as previously described (Chomczynski et al., Anal. Biochem., 1987, 162 (1): 156-9) and quantified by Northern Blot hybridization (Peters, J. Biol. Chem., 1997, 272 (43): 27307-12) using human apo A-I and 28S as probes (Peters, J. Biol. Chem., 1997, 272 (43): 27307-12).
HepG2 cells were grown in DMEM medium supplemented with 10% fetal calf serum, penicillin/streptomycin, sodium pyruvate and nonessential amino acids and incubated at 37° C. in a humidified 5% CO2/95% air atmosphere. Total RNA was extracted as previously described (Chomczynski et al., Anal. Biochem., 1987, 162 (1): 156-9) and quantified by Northern Blot hybridization (Peters, J. Biol. Chem., 1997, 272 (43): 27307-12) using human apo A-I and 28S as probes (Peters, J. Biol. Chem., 1997, 272 (43): 27307-12).
(§1) HepG2 were cotransfected as described in example 5. Cellular mRNA was obtained as described above in example 2.

[2] = system: herpes simplex virus thymidine kinase promoter; assay: luciferase reporter TkpGL3 (TK promoter only) in HepG2 cells overexpressing hFXR; assay type: cell-based, human; conditions: overexpression of hFXR, CDCA
Description: (§2) HepG2 cells were transfected by lipofection with 300 ng of pCDNA3-hFXR vector for expression of hFXR and 1 μg of the indicated reporter vectors allowing expression of a luciferase reporter gene under the control wild type or mutated fragment −254/+91 of the human apo A-I gene promoter, under the control of the herpes simplex virus thymidine kinase promoter or under the control of three copies of site A or site C of the human apo A-I gene cloned upstream of the herpes simplex virus thymidine kinase promoter. […] The construct containing fragment −254/+91 of the apo A-I promoter in which site A is mutated was obtained by directed mutagenesis of site A, in the wild type construct, using the Quick Change Site directed mutagenesis kit (Stratagene, La Jolla, Calif., USA), oligonucleotide 5′-[…]-3′ (SEQ ID NO: 4) and the complementary oligonucleotide. The construct containing fragment −254/+91 of the apo A-I promoter in which site C is mutated was obtained by directed mutagenesis of site C, in the wild type construct, using the Quick Change Site directed mutagenesis kit (Stratagene, La Jolla, Calif., USA), oligonucleotide 5′-[…]-3′ (SEQ ID NO: 3) and the complementary oligonucleotide. […]

human apo A-I promoter = assay: luciferase reporter under human apo A-I promoter fragments in HepG2 cells overexpressing hFXR; assay type: cell-based
Description: HepG2 cells were cotransfected by lipofection with 300 ng of pCDNA3-hFXR vector for FXR expression, 300 ng of pSG5-mRXRα vector and 1 μg of the indicated reporter vectors enabling expression of the luciferase reporter gene under the control of fragments −254/+91, −192/+91 and −40/+91 of the apo A-I promoter. […] Total DNA was adjusted to 2 μg using plasmid pBKS+. After a 3 hour transfection, cells were incubated in the culture medium with bile acids at the indicated concentrations for 36 hours.
HepG2 cells were transfected by lipofection with 300 ng of pCDNA3-hFXR vector for expression of hFXR and 1 μg of the indicated reporter vectors allowing expression of a luciferase reporter gene under the control wild type or mutated fragment −254/+91 of the human apo A-I gene promoter, under the control of the herpes simplex virus thymidine kinase promoter or under the control of three copies of site A or site C of the human apo A-I gene cloned upstream of the herpes simplex virus thymidine kinase promoter. […] The construct containing fragment −254/+91 of the apo A-I promoter in which site A is mutated was obtained by directed mutagenesis of site A, in the wild type construct, using the Quick Change Site directed mutagenesis kit (Stratagene, La Jolla, Calif., USA), oligonucleotide 5′-[…]-3′ (SEQ ID NO: 4) and the complementary oligonucleotide. The construct containing fragment −254/+91 of the apo A-I promoter in which site C is mutated was obtained by directed mutagenesis of site C, in the wild type construct, using the Quick Change Site directed mutagenesis kit (Stratagene, La Jolla, Calif., USA), oligonucleotide 5′-[…]-3′ (SEQ ID NO: 3) and the complementary oligonucleotide. The construct containing fragment −254/+91 of the apo A-I promoter in which sites A and C are mutated was obtained by directed mutagenesis of site A, in the Cmut construct, using the Quick Change Site directed mutagenesis kit (Stratagene, La Jolla, Calif., USA), oligonucleotide 5′-[…]-3′ (SEQ ID NO: 4) and the complementary oligonucleotide. The construct denoted TkpGL3 containing the herpes simplex virus thymidine kinase promoter cloned upstream of a luciferase reporter gene has been previously described (Raspé et al., J. Biol. Chem., 2001, 276 (4): 2865-2871). The C3TK construct containing three copies of site C of the human apo A-I promoter cloned upstream of the herpes simplex virus thymidine kinase promoter and the luciferase reporter gene was obtained by oriented cloning of three copies of the double-stranded oligonucleotide corresponding to the wild type site C sequence (SEQ ID NO: 1) into the SmaI site of vector TkpGL3. The A3TK construct containing three copies of site A of the human apo A-I promoter cloned upstream of the herpes simplex virus thymidine kinase promoter and the luciferase reporter gene was obtained by oriented cloning of three copies of the double-stranded oligonucleotide corresponding to the wild type site A sequence (SEQ ID NO: 2) into the SmaI site of vector TkpGL3. Total DNA was adjusted to 2 μg using plasmid pBKS+. After a 3 hour transfection, cells were incubated in the culture medium with the bile acids at the indicated concentrations for 36 hours.
as §1

[3] = system: site C of the human apo A-I promoter; assay: luciferase reporter C3TK (three copies of site C upstream of TK promoter) in HepG2 cells overexpressing hFXR; assay type: cell-based
Description: as §2

[4] = system: site A of the human apo A-I promoter; assay: luciferase reporter A3TK (three copies of site A upstream of TK promoter) in HepG2 cells overexpressing hFXR; assay type: cell-based
Description: as §2

[5] = system: FXR (hFXR) (Homo sapiens); assay: cell_activity; conditions: 1 µM GW4064, HepG2
FXR = molecular target: T1, FXR (Homo sapiens, UniProt Q96RI1); conditions: FIG. 4
T1 sequence (Q96RI1 1-472 isoform Q96RI1-2): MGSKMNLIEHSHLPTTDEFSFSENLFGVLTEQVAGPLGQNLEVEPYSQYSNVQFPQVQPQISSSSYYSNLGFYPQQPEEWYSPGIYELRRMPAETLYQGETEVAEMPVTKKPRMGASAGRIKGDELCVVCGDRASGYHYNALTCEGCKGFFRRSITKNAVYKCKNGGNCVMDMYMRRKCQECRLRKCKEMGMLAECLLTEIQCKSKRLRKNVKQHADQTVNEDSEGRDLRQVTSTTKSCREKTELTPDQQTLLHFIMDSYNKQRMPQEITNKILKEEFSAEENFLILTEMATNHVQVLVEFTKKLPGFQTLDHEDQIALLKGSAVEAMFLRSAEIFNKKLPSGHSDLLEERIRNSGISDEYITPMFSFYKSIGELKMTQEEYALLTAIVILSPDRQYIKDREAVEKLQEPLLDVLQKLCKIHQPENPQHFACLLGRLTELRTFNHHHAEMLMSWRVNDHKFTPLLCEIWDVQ

[6] = system: mice transgenic for the human apo A-I gene; conditions: diet rich in TCA 0.5% m/m, one week
Text: Effect of TCA on Plasma Concentrations of Cholesterol and Apo A-I and on Hepatic Expression of apo A-I in Mice Transgenic for the Human apo A-I Gene (FIG. 1)
Example 1 illustrates the effect of a diet rich in taurocholate on serum cholesterol and human apo A-I levels and on lipid profile and hepatic expression of human apo A-I in transgenic mice expressing the apo A-I gene in a C57BL genetic background.
Ten transgenic mice expressing the apo A-I gene in a C57BL genetic background (IFFA-CREDO, L'Arbresle, France) were genotyped by PCR and divided into two groups of five animals. The first group received a normal diet for one week while the second was given a diet rich in TCA (taurocholic acid, 0.5% m/m). Blood was collected after a 12 hour fast by retroorbital puncture under barbital anesthesia. Serum samples were collected and stored at −20° C. pending analysis. After one week of dietary treatment, animals were sacrificed and liver specimens were collected and frozen for analysis. Human apo A-I levels in serum were measured before and after the diet as previously described (Peters, J. Biol. Chem., 1997, 272 (43): 27307-12). Serum cholesterol and lipid profiles after FPLC were measured as previously described (Raspé et al., J. Lipid Res., 1999, 40 (11): 2099-2110). Total RNA was extracted from liver specimens as previously described (Chomczynski et al., Anal. Biochem., 1987, 162 (1): 156-9) and quantified by Northern Blot hybridization (Peters, 1997) using human apo A-I and 28S as probes (Peters, J. Biol. Chem., 1997, 272 (43): 27307-12).

[7] = overexpression of hFXR and mRXRα, CDCA, 36 hours
[8] = overexpression of hFXR, panel A
[9] = hFXR overexpression, 1 μM GW4064, in words

C[C@H](CCC(=O)O)[C@H]1CC[C@H]2[C@@H]3[C@H](O)C[C@@H]4C[C@H](O)CC[C@]4(C)[C@H]3CC[C@]12C [CDCA, chenodeoxycholic acid]
apo A-I expression in HepG2 cells ([1]; 50 μM): considerably reduces
effect on apo A-I expression after actinomycin D preincubation ([1]; CDCA 50 μM, 12-h preincubation with actinomycin D (5 g/ml)): offset
apo A-I expression in HepG2 cells ([1]; increasing concentrations): reduce
activity of construct TkpGL3 [2]: not affected
activity of fragment −40/+91 (minimal promoter) of the apo A-I gene promoter (human apo A-I promoter; [7]): not
activity of fragment −192/+91 of the apo A-I gene promoter (human apo A-I promoter; [7]): represses
activity of fragment −254/+91 of the apo A-I gene promoter (human apo A-I promoter; [7]): represses
activity of fragment −254/+91 with site A mutated (A mut construct) (human apo A-I promoter; overexpression of hFXR, CDCA): represses
activity of wild type fragment −254/+91 (wt construct) (human apo A-I promoter; overexpression of hFXR, CDCA): represses
activity of fragment −254/+91 with site C mutated (C mut construct) (human apo A-I promoter; [8]): transcriptional activation
activity of fragment −254/+91 with sites A and C mutated (AC mut construct) (human apo A-I promoter; [8]): loss of response
activity of construct C3TK ([3]; overexpression of hFXR, CDCA): represses
activity of construct A3TK ([4]; overexpression of hFXR, CDCA): activated

apo A-I promoter -254/+91
activity (% of control luciferase) ([5]; construct ABC, repression): 56.8

C[C@H](CCC(=O)NCCS(=O)(=O)O)[C@H]1CC[C@H]2[C@@H]3[C@H](O)C[C@@H]4C[C@H](O)CC[C@]4(C)[C@H]3C[C@H](O)[C@]12C [TCA, taurocholic acid]
apo A-I expression in HepG2 cells ([1]; increasing concentrations): reduce
FXR activation (FXR): activate
hepatic expression of apo A-I [6]: reduces
plasma concentrations of apo A-I [6]: reduces
plasma concentrations of cholesterol [6]: reduces

CC(C)c1onc(-c2c(Cl)cccc2Cl)c1COc1ccc(/C=C/c2cccc(C(=O)O)c2)c(Cl)c1 [GW4064]
apo A-I expression in HepG2 cells ([1]; GW4064, in words): markedly reduces
activity of fragment −254/+91 of the human apo A-I promoter (construct ABC) (human apo A-I promoter; [9]): represses
activity of construct C3TK [3, 9]: represses
activity of construct A3TK ([4]; hFXR overexpression, GW4064, in words): activated

apo A-I promoter site C wt
activity (% of control luciferase) ([5]; C3TK, three copies, repression): 61.8

apo A-I promoter site A wt
activity (% of control luciferase) ([5]; A3TK, three copies, activation): 1120
